Target: p70 S6 kinase (S6K1) (Homo sapiens, UniProt P23443)
Test: in vitro kinase assay with recombinant S6K1, peptide substrate and […] ATP
Format: biochemical

Chain of p70 S6 kinase (S6K1) (P23443 24-525): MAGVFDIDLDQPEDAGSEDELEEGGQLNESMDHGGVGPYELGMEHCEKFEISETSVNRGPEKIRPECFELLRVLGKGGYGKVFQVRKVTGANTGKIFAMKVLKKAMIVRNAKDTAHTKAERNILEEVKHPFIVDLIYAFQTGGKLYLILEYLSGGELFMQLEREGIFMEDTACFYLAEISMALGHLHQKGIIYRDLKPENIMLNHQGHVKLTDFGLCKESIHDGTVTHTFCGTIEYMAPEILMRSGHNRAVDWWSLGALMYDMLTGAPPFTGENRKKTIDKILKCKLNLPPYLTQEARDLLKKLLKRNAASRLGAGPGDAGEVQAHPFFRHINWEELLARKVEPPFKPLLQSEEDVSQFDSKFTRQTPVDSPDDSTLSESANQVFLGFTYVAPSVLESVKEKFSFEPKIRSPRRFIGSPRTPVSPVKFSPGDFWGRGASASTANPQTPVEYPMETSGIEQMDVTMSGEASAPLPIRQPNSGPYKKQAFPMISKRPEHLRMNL

Row | IC50 [µM] | SMILES
1 | ~55 | Cc1oncc1C(=O)Nc1ccc(C(F)(F)F)cc1 [leflunomide]
2 | ~80 | C/C(O)=C(\C#N)C(=O)Nc1ccc(C(F)(F)F)cc1 [A77 1726]

Source: paper PMC4212247 (Neoplasia (New York, N.Y.), 2014)
